ChEMBL document CHEMBL1127718, “Quinoline-4-carboxylic acids as angiotensin II receptor antagonists” (Bioorg Med Chem Lett, 1994)
pKi: −log10 of the molar value.

Key:
Oryctolagus cuniculus = species on record: Oryctolagus cuniculus; assay: In vitro functional antagonism was determined by ability of a single concentration of compound to block AII induced contractions in rabbit aortic smooth muscle strip; conditions: Aorta
[1] = target: T1, Type-1 angiotensin II receptor B (Rattus norvegicus, UniProt P29089); assay: Inhibition of [125I]Sar1,Ile8 angiotensin II binding to Angiotensin II receptor type 1 in rat adrenocortical membrane; format: cell membranes
T1 sequence (P29089 whole entry): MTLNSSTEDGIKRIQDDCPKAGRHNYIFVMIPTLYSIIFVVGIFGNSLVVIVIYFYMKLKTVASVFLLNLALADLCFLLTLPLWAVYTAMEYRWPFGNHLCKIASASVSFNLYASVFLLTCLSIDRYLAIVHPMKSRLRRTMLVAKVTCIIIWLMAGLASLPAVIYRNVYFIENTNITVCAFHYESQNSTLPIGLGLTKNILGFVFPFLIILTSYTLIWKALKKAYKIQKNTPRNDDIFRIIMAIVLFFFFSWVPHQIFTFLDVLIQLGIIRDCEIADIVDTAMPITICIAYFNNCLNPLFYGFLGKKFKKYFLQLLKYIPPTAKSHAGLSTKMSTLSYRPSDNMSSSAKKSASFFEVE

Structure (SMILES) | pKi [1] | Kb (Oryctolagus cuniculus) [nM]
Cc1cccc2c(C(=O)O)c(Oc3ccc(-c4ccccc4-c4nnn[nH]4)cc3)c(C3CC3)nc12 | 5.89 | 8.3
O=C(O)c1cccc2nc(C3CC3)c(Oc3ccc(-c4ccccc4-c4nn[nH]n4)cc3)c(C(=O)O)c12 | 6.92 | 2
O=C(O)c1c(Oc2ccc(-c3ccccc3-c3nnn[nH]3)cc2)c(C2CC2)nc2ccc(F)cc12 | 7.85 | 0.61
COc1ccc2nc(C3CC3)c(Oc3ccc(-c4ccccc4-c4nn[nH]n4)cc3)c(C(=O)O)c2c1 | 7.48 | 0.2
O=C(O)c1c(Oc2ccc(-c3ccccc3-c3nn[nH]n3)cc2)c(C2CC2)nc2cc(Cl)ccc12 | 7.49 | 0.18

These reach a higher pKi [1]. Values come first.

pKi [1] | Structure (SMILES) | Kb (Oryctolagus cuniculus) [nM]
7.92 | Cc1cccc2nc(C3CC3)c(Oc3ccc(-c4ccccc4-c4nnn[nH]4)cc3)c(C(=O)O)c12 | 0.4
8.68 | O=C(O)c1c(Oc2ccc(-c3ccccc3-c3nnn[nH]3)cc2)c(C2CC2)nc2cccnc12 | 0.67
8.54 | O=C(O)c1c(Oc2ccc(-c3ccccc3-c3nn[nH]n3)cc2)c(C2CC2)nc2ccccc12 | 0.061
8.49 | Cc1nc2ccccc2c(C(=O)O)c1Oc1ccc(-c2ccccc2-c2nn[nH]n2)cc1 | 1.1
8.34 | O=C(O)c1c(Oc2ccc(-c3ccccc3-c3nnn[nH]3)cc2)c(C2CC2)nc2ncccc12 | 0.76
8.23 | CCc1nc2ccccc2c(C(=O)O)c1Oc1ccc(-c2ccccc2-c2nn[nH]n2)cc1 | 0.12
8.47 | CCCc1nc2ccccc2c(C(=O)O)c1Oc1ccc(-c2ccccc2-c2nnn[nH]2)cc1 | 0.091
